# Data from patent publication US12077503B2, “Substituted cyclic amides and their use as herbicides” (FMC CORPORATION, priority 2015, dated 2024).
# How the values were obtained:
# Type in all cases: in vivo
# corn (Zea mays) [1] = assay: Test G Pre-Emergence Protocol; conditions: Zea mays, pre-emergence, 312 h, evaluated after 13 days; for plant injury at 15.625 g/ha: 15.625 g ai/ha; for plant injury at 15.625 g/ha / plant injury at 250 g/ha: read-out: Corn damage rating (100=total damage to plant; 0=no damage to plant); for plant injury at 62.5 g/ha: 62.5 g ai/ha, 100=total damage to plant, 0=no damage to plant, read-out: plant damage rating, Corn; for plant injury at 250 g/ha: 250 g ai/ha
# Procedure, shortened: (§1)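 Seeds were sown in standard soil and kept one day in a glasshouse (24/16° C day/night, 14 h light, 65% humidity), then sprayed with compound in acetone/water (50:50) containing 0.5% Tween 20 at 15.625, 62.5 or 250 g/ha. Damage was scored after 13 days (0 = none, 100 = total).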
# [2] = system: ivy-leaved morning glory (Ipomoea hederacea); assay: Test G Pre-Emergence Protocol; conditions: Ipomoea, pre-emergence, 312 h, evaluated after 13 days; for pest or weed control at 15.625 g/ha: 15.625 g ai/ha, read-out: Morning-glory, Ivy-leaved damage rating (100=total damage to plant; 0=no damage to plant); for pest or weed control at 62.5 g/ha: 62.5 g ai/ha, 100=total damage to plant, 0=no damage to plant, read-out: plant damage rating, Morningglory, Ivy-leaved; for pest or weed control at 250 g/ha: 250 g ai/ha, read-out: Morningglory, Ivy-leaved damage rating (100=total damage to plant; 0=no damage to plant)
# Procedure, shortened: as §1
# [3] = system: barnyardgrass (Echinochloa crus-galli); assay: Test G Pre-Emergence Protocol; conditions: Echinochloa crus-galli, pre-emergence, 312 h, evaluated after 13 days; for pest or weed control at 15.625 g/ha: 15.625 g ai/ha, read-out: Barnyard grass damage rating (100=total damage to plant; 0=no damage to plant); for pest or weed control at 62.5 g/ha: 62.5 g ai/ha, 100=total damage to plant, 0=no damage to plant, read-out: plant damage rating, Barnyardgrass; for pest or weed control at 250 g/ha: 250 g ai/ha, read-out: Barnyardgrass damage rating (100=total damage to plant; 0=no damage to plant)
# Procedure, shortened: as §1
# [4] = system: velvetleaf (Abutilon theophrasti); assay: Test G Pre-Emergence Protocol; conditions: Abutilon theophrasti, pre-emergence, 312 h, evaluated after 13 days; for pest or weed control at 15.625 g/ha: 15.625 g ai/ha; for pest or weed control at 15.625 g/ha / pest or weed control at 250 g/ha: read-out: Velvetleaf damage rating (100=total damage to plant; 0=no damage to plant); for pest or weed control at 62.5 g/ha: 62.5 g ai/ha, 100=total damage to plant, 0=no damage to plant, read-out: plant damage rating, Velvetleaf; for pest or weed control at 250 g/ha: 250 g ai/ha
# Procedure, shortened: as §1
# [5] = system: redroot pigweed (Amaranthus retroflexus); assay: Test G Pre-Emergence Protocol; conditions: Amaranthus retroflexus, pre-emergence, 312 h, evaluated after 13 days; for pest or weed control at 15.625 g/ha: 15.625 g ai/ha; for pest or weed control at 15.625 g/ha / pest or weed control at 250 g/ha: read-out: Pigweed, Redroot damage rating (100=total damage to plant; 0=no damage to plant); for pest or weed control at 62.5 g/ha: 62.5 g ai/ha, 100=total damage to plant, 0=no damage to plant, read-out: plant damage rating, Pigweed, Redroot; for pest or weed control at 250 g/ha: 250 g ai/ha
# Procedure, shortened: as §1
# [6] = system: giant foxtail (Setaria faberi); assay: Test G Pre-Emergence Protocol; conditions: Setaria faberi, pre-emergence, 312 h, evaluated after 13 days; for pest or weed control at 15.625 g/ha: 15.625 g ai/ha; for pest or weed control at 15.625 g/ha / pest or weed control at 250 g/ha: read-out: Foxtail, Giant damage rating (100=total damage to plant; 0=no damage to plant); for pest or weed control at 62.5 g/ha: 62.5 g ai/ha, 100=total damage to plant, 0=no damage to plant, read-out: plant damage rating, Foxtail, Giant; for pest or weed control at 250 g/ha: 250 g ai/ha
# Procedure, shortened: as §1
# corn (Zea mays) [7] = assay: Test G Post-Emergence Protocol; conditions: Zea mays, post-emergence, 312 h; for plant injury at 15.625 g/ha: 15.625 g ai/ha, evaluated after 13 days (100=total damage to plant; 0=no damage to plant), read-out: Corn damage rating; for plant injury at 62.5 g/ha: 62.5 g ai/ha, read-out: Corn damage rating (100=total damage to plant; 0=no damage to plant); for plant injury at 62.5 g/ha / plant injury at 250 g/ha: evaluated after 13 days; for plant injury at 250 g/ha: 250 g ai/ha, read-out: damage to plant, Corn (100=total damage to plant; 0=no damage to plant)
# Procedure, shortened: (§2)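 Post-emergence herbicidal damage, scored visually 0–100 at 13 days. Application at 15.625, 62.5 or 250 g/ha onto 8-day-old plants grown under glasshouse control.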
# [8] = system: ivy-leaved morning glory (Ipomoea hederacea); assay: Test G Post-Emergence Protocol; conditions: Ipomoea, post-emergence, 312 h; for pest or weed control at 15.625 g/ha: 15.625 g ai/ha, evaluated after 13 days (100=total damage to plant; 0=no damage to plant), read-out: Morningglory, Ivy-leaved damage rating; for pest or weed control at 62.5 g/ha: 62.5 g ai/ha, read-out: Morningglory, Ivy-leaved damage rating (100=total damage to plant; 0=no damage to plant); for pest or weed control at 62.5 g/ha / pest or weed control at 250 g/ha: evaluated after 13 days; for pest or weed control at 250 g/ha: 250 g ai/ha, read-out: damage to plant, Morningglory, Ivy-leaved (100=total damage to plant; 0=no damage to plant)
# Procedure, shortened: as §2
# [9] = system: barnyardgrass (Echinochloa crus-galli); assay: Test G Post-Emergence Protocol; conditions: Echinochloa crus-galli, post-emergence, 312 h; for pest or weed control at 15.625 g/ha: 15.625 g ai/ha, evaluated after 13 days (100=total damage to plant; 0=no damage to plant), read-out: Barnyardgrass damage rating; for pest or weed control at 62.5 g/ha: 62.5 g ai/ha, read-out: Barnyardgrass damage rating (100=total damage to plant; 0=no damage to plant); for pest or weed control at 62.5 g/ha / pest or weed control at 250 g/ha: evaluated after 13 days; for pest or weed control at 250 g/ha: 250 g ai/ha, read-out: damage to plant, Barnyardgrass (100=total damage to plant; 0=no damage to plant)
# Procedure, shortened: as §2
# [10] = system: velvetleaf (Abutilon theophrasti); assay: Test G Post-Emergence Protocol; conditions: Abutilon theophrasti, post-emergence, 312 h; for pest or weed control at 15.625 g/ha: 15.625 g ai/ha, evaluated after 13 days (100=total damage to plant; 0=no damage to plant), read-out: Velvetleaf damage rating; for pest or weed control at 62.5 g/ha: 62.5 g ai/ha, read-out: Velvetleaf damage rating (100=total damage to plant; 0=no damage to plant); for pest or weed control at 62.5 g/ha / pest or weed control at 250 g/ha: evaluated after 13 days; for pest or weed control at 250 g/ha: 250 g ai/ha, read-out: damage to plant, Velvetleaf (100=total damage to plant; 0=no damage to plant)
# Procedure, shortened: as §2
# [11] = system: redroot pigweed (Amaranthus retroflexus); assay: Test G Post-Emergence Protocol; conditions: Amaranthus retroflexus, post-emergence, 312 h; for pest or weed control at 15.625 g/ha: 15.625 g ai/ha, evaluated after 13 days (100=total damage to plant; 0=no damage to plant), read-out: Pigweed, Redroot damage rating; for pest or weed control at 62.5 g/ha: 62.5 g ai/ha, read-out: Pigweed, Redroot damage rating (100=total damage to plant; 0=no damage to plant); for pest or weed control at 62.5 g/ha / pest or weed control at 250 g/ha: evaluated after 13 days; for pest or weed control at 250 g/ha: 250 g ai/ha, read-out: damage to plant, Pigweed, Redroot (100=total damage to plant; 0=no damage to plant)
# Procedure, shortened: as §2
# [12] = system: giant foxtail (Setaria faberi); assay: Test G Post-Emergence Protocol; conditions: Setaria faberi, post-emergence, 312 h; for pest or weed control at 15.625 g/ha: 15.625 g ai/ha, evaluated after 13 days (100=total damage to plant; 0=no damage to plant), read-out: Foxtail, Giant damage rating; for pest or weed control at 62.5 g/ha: 62.5 g ai/ha, read-out: Foxtail, Giant damage rating (100=total damage to plant; 0=no damage to plant); for pest or weed control at 62.5 g/ha / pest or weed control at 250 g/ha: evaluated after 13 days; for pest or weed control at 250 g/ha: 250 g ai/ha, read-out: damage to plant, Foxtail, Giant (100=total damage to plant; 0=no damage to plant)
# Procedure, shortened: as §2
SMILES,plant injury at 15.625 g/ha (corn (Zea mays) [1]) [%],plant injury at 62.5 g/ha (corn (Zea mays) [1]) [%],plant injury at 250 g/ha (corn (Zea mays) [1]) [%],pest or weed control at 15.625 g/ha [2] [%],pest or weed control at 62.5 g/ha [2] [%],pest or weed control at 250 g/ha [2] [%],pest or weed control at 15.625 g/ha [3] [%],pest or weed control at 62.5 g/ha [3] [%],pest or weed control at 250 g/ha [3] [%],pest or weed control at 15.625 g/ha [4] [%],pest or weed control at 62.5 g/ha [4] [%],pest or weed control at 250 g/ha [4] [%],pest or weed control at 15.625 g/ha [5] [%],pest or weed control at 62.5 g/ha [5] [%],pest or weed control at 250 g/ha [5] [%],pest or weed control at 15.625 g/ha [6] [%],pest or weed control at 62.5 g/ha [6] [%],pest or weed control at 250 g/ha [6] [%],plant injury at 15.625 g/ha (corn (Zea mays) [7]) [%],plant injury at 62.5 g/ha (corn (Zea mays) [7]) [%],also measured
CN1C[C@@H](c2ccc(C(F)(F)F)cc2)[C@H](C(=O)Nc2nccnc2Cl)C1=O (racemic) [Compound 1552],0,0,0,0,0,0,0,0,0,0,0,0,0,0,0,0,0,0,10,10,plant injury at 250 g/ha (corn (Zea mays) [7]): 10%; pest or weed control at 15.625 g/ha [8]: 0%; pest or weed control at 62.5 g/ha [8]: 0%; pest or weed control at 250 g/ha [8]: 0%; pest or weed control at 15.625 g/ha [9]: 0%; pest or weed control at 62.5 g/ha [9]: 0%; pest or weed control at 250 g/ha [9]: 0%; pest or weed control at 15.625 g/ha [10]: 0%; pest or weed control at 62.5 g/ha [10]: 0%; pest or weed control at 250 g/ha [10]: 0%; pest or weed control at 15.625 g/ha [11]: 0%; pest or weed control at 62.5 g/ha [11]: 0%; pest or weed control at 250 g/ha [11]: 0%; pest or weed control at 15.625 g/ha [12]: 0%; pest or weed control at 62.5 g/ha [12]: 0%; pest or weed control at 250 g/ha [12]: 0%
CN1C[C@@H](c2ccc(C(F)(F)F)cc2)[C@H](C(=O)Nc2nccs2)C1=O (racemic) [Compound 1554],0,0,0,0,0,0,0,0,10,0,0,0,0,0,30,0,0,20,0,0,plant injury at 250 g/ha (corn (Zea mays) [7]): 0%; pest or weed control at 15.625 g/ha [8]: 0%; pest or weed control at 62.5 g/ha [8]: 0%; pest or weed control at 250 g/ha [8]: 0%; pest or weed control at 15.625 g/ha [9]: 0%; pest or weed control at 62.5 g/ha [9]: 0%; pest or weed control at 250 g/ha [9]: 0%; pest or weed control at 15.625 g/ha [10]: 0%; pest or weed control at 62.5 g/ha [10]: 0%; pest or weed control at 250 g/ha [10]: 0%; pest or weed control at 15.625 g/ha [11]: 0%; pest or weed control at 62.5 g/ha [11]: 0%; pest or weed control at 250 g/ha [11]: 0%; pest or weed control at 15.625 g/ha [12]: 0%; pest or weed control at 62.5 g/ha [12]: 0%; pest or weed control at 250 g/ha [12]: 0%
